The record followed here is patent publication US9975893B2, “Pyrazolo[3,4-c]pyridine derivatives” (CSPC ZHONGQI PHARMACEUTICAL TECHNOLOGY (SHIJIAZHUANG) CO., …, priority 2014, dated 2018).

Series [1] has as its system Male SD rats. The series is described as follows: Rat tail bleeding model. The series is classed as in vivo. To be noted: rat tail transected 0.5 to 4 hours after administration; prolongation = ratio of treated vs. mean vehicle value; relative to apixaban. How it is done: II Rat Tail Bleeding Model
Male SD rats were allocated randomly and administrated. After the administration, the rats were anesthetized by intraperitoneal injection of 10% chloral hydrate. At the time point of 0.5 to 4 hours (Tmax in PK) after the administration, the tails of anesthetized rats were transected 3 mm from the tip and vertically immersed in saline at 37° C. The time point when the continuous blood flow ceased for >30 s was measured. The prolongation of bleeding time was expressed as a ratio of treated vs. the mean vehicle value. Effects of compounds were determined as described below.

The subject of series [2] is Male SD rats. Briefly: Arteriovenous shunt model in rats. In kind it is in vivo, rat. Details: concentration or dose not given beside the values. Conditions: rats given orally 2-4 hours before shunt opened; shunt 15 minutes; thrombus weight, treated vs. mean vehicle. The source says:
III. Arteriovenous Shunt Model in Rats
Two 10 cm-long polyethylene tubings (1.50 and 2.88 mm of inner and outer diameter, respectively) linked to a central part (8 cm-long, 2.11 and 3.77 mm of inner and outer diameter, respectively) containing a 6 cm silk thread and filled with heparin (3.125 U/ml) were placed between the right carotid artery and the left jugular vein in rats.
Male SD rats were anesthetized by intraperitoneal injection of 10% chloral hydrate after oral dose, inverted fixation, then the right catotid artery and left vena jugularis externa were isolated, the proximal and distal sutures of catotid artery were tied. The syringe needle were cannulated into the catotid artery and fasted, the other of the tube was cannulated into the right vena jugularis externa. Rats were given orally 2-4 hours before the shunt was opened. Blood flowed from the right carotid artery into the polyethylene tubing and then return to left vena jugularis externa. The shunt was then disconnected 15 minutes later and the silk thread covered with thrombus was immediately withdrawn and weighed. The wet weight of the thrombus was determined. Then the silk thread was dried at 60° C. for 4 h to get the dry weight of the thrombus. The anti-thrombotic effects of these agents were expressed as percentage inhibition of thrombus formation based on the treated vs. the corresponding mean vehicle.

For a further series, the target named is T1, Factor Xa (Homo sapiens, UniProt P00742).
T1 construct: purchased MERK
T1 sequence (P00742 235-488 limits assumed): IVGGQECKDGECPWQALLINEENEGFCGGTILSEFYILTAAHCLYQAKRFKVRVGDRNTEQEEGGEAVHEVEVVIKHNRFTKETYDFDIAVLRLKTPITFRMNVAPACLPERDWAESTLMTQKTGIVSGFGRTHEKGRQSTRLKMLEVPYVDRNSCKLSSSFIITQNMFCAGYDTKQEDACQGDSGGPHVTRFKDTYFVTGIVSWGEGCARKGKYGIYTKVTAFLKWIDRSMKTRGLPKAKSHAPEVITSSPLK
T1 sequence (P00742 41-179 partner limits assumed): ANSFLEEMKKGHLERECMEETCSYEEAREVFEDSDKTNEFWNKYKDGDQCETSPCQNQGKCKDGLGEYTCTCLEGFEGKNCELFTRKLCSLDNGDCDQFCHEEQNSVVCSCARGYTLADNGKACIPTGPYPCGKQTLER
Briefly: Anti-Factor Xa activity assay (chromogenic substrate CS-11(22)). In kind it is biochemical. Conditions: ratio of compound IC50 to apixaban IC50; Factor Xa 0.1 U/ml, absorbance at 405 nm, 37° C. How it is done:
I. Anti-Factor Xa Activity Assay
Substrate: CS-1122 (Hyphen)
Buffer: 50 mM TrisHCl, 150 mM NaCl, PH8.3
100 μL of buffer, 50 μL of different concentrations of compounds (diluted with buffer) and 50 μl of 0.1 U/ml Factor Xa enzyme (diluted with buffer) were added to a 96-well plate. After 15 min of exposure, 50 μL of chromogenic substrate 2.5 mg/ml CS-11 (22) was added. The substrate hydrolysis was monitored by measuring absorbance at 405 nm at 37° C. for up to 30 min (interval: 30 seconds) using a microplate spectrophotometer. IC50 was calculated by bliss.

With `CCOc1ccc(-n2nc(C(N)=O)c3c2C(=O)N(c2ccc(N4CCCC4=O)c(C)c2)CC3)cc1F` [A 36, 1-(3-fluoro-4-ethoxyphenyl)-6-(3-methyl-4-(2-oxopyrrolidin-1-yl)phenyl)-7-oxo-4,5,6,7-tetrahydro-1H-pyrazolo[3,4-c]pyridine-3-carboxamide], the “The Prolongation of bleeding time (compound)/The Prolongation of bleeding time(apixaban)” value (“The Prolongation of bleeding time” for short) with Male SD rats [1] was less than 1. Moreover, in the series with Male SD rats [2], the “Inhibition of thrombus formation (%)” value amounted to 71.6%. Also, the “IC50(Compound)/IC50(apixaban)” value on Factor Xa is less than 1.

Consider `CCOc1ccc(-n2nc(C(N)=O)c3c2C(=O)N(c2ccc(-n4ccccc4=O)c(C)c2)CC3)cc1` [A 37, 1-(4-ethoxyphenyl)-6-(3-methyl-4-(2-oxopyridin-1(2H)-yl)phenyl)-7-oxo-4,5,6,7-tetrahydro-1H-pyrazolo[3,4-c]pyridine-3-carboxamide], for which the “The Prolongation of bleeding time” value in the series with Male SD rats [1] is less than 1. The “Inhibition of thrombus formation (%)” value in the series on Male SD rats [2] is 63.7%. The “IC50(Compound)/IC50(apixaban)” value at Factor Xa was less than 1.

Consider `CCOc1ccc(-n2nc(C(N)=O)c3c2C(=O)N(c2ccc(-n4cccc(C)c4=O)c(C)c2)CC3)cc1` [A 39, 1-(4-ethoxyphenyl)-6-(3-methyl-4-(3-methyl-2-oxopyridin-1(2H)-yl)phenyl)-7-oxo-4,5,6,7-tetrahydro-1H-pyrazolo[3,4-c]pyridine-3-carboxamide], for which, in the series on Male SD rats [1], the “The Prolongation of bleeding time” value was less than 1. Further, the “Inhibition of thrombus formation (%)” value in the series with Male SD rats [2] was found to be 64.5%. For the same compound, the “IC50(Compound)/IC50(apixaban)” value at Factor Xa was less than 1.
